Assay results reported in US9630894B2, “Energy efficient method and apparatus for the extraction of biomolecules from dilute aqueous solution” (DYNASEP INC., priority 2012, dated 2017).

Assay: CCC extraction with DME of clarified fermentation broth from Clostridium acetobutylicum, GC and DNS assay
Format: physicochemical
Conditions: for extraction into DME: Run 1, pH greater than 5.5
Protocol: This example describes three different runs of the CCC with fermentation broth from Clostridium acetobutylicum. […] The fermentation was intentionally interrupted prior to completion.
The extraction column operated at room temperature (˜25° C.) throughout the column. Periodic extract and raffinate samples were taken and analyzed for the constituents in the extract and raffinate discharges.
This example describes three different runs. In all cases, the mass of solvent to the mass of feed ratio (S/F) was 0.9. In all example the fermentation broth was first centrifuged to removal all cellular matter. Thus, the feed solution was clarified. In the case of the first run, the following components were measured via gas chromatograph (GC) analysis using external standard calibration. The external standard was run prior to analyzing the samples to provide individual calibration between peak area and the respective constituent under measure. […] Acetate was the conjugate base of acetic acid. Butyrate was the conjugate base of butyric acid. All components were quantified in the extract and raffinate. Since the extract and raffinate are mostly water and DME dissolves in water to approximately 20 wt. %, the samples were allowed to degas over a 24 hour period.
During the run, samples were taken of the extract and raffinate. In the case of the extract, the bulk DME was removed by reduction of pressure and addition of heat to flash the DME from the water and other solution constituents.
Extract and raffinate samples were collected at periodic intervals during the CCC testing. […] Glucose was measured via a DNS (3,5-dinitrosalicylic acid) assay.
In cases where the extract formed a two phase solution, the extract samples were diluted with distilled water to create a single phase and homogenous sample prior to GC. The dilution factor was then used to correct the GC measurements for concentrations prior to dilution.

[1] = Run 3, Extract Bot, time 31 min
[2] = Run 3, Extract Bot, time 37 min
[3] = Run 3, Extract Top, time 31 min
[4] = Run 3, Extract Top, time 37 min

CC(C)CO [isobutanol, 2-methyl-1-propanol]
distribution coefficients compared (Run 2, isobutanol versus butanol): approximately equal
Ratio of I/N (isobutanol/n-butanol) [1]: 1.16
concentration in sample [1]: 39300 µg/mL
Ratio of I/N (isobutanol/n-butanol) [2]: 1.15
concentration in sample [2]: 39690 µg/mL
Ratio of I/N (isobutanol/n-butanol) [3]: 1.04
concentration in sample [3]: 316670 µg/mL
Ratio of I/N (isobutanol/n-butanol) [4]: 1.03
concentration in sample [4]: 328990 µg/mL
Ratio of I/N (isobutanol/n-butanol) (Run 3, Extract, time 22 min): 0.98
concentration in sample (Run 3, Extract, time 22 min): 18650 µg/mL
Ratio of I/N (isobutanol/n-butanol) (Run 3, Extract, time 27 min): 1.10
concentration in sample (Run 3, Extract, time 27 min): 35800 µg/mL
Ratio of I/N (isobutanol/n-butanol) (Run 3, Extract, time 43 min): 1.07
concentration in sample (Run 3, Extract, time 43 min): 35340 µg/mL
Ratio of I/N (isobutanol/n-butanol) (Run 3, Extract, time 70 min): 1.05
concentration in sample (Run 3, Extract, time 70 min): 30950 µg/mL
Ratio of I/N (isobutanol/n-butanol) (Run 3, Extract, time 74 min): 1.02
concentration in sample (Run 3, Extract, time 74 min): 31830 µg/mL
Ratio of I/N (isobutanol/n-butanol) (Run 3, Extract, time 78 min): 1.01
concentration in sample (Run 3, Extract, time 78 min): 33190 µg/mL
Ratio of I/N (isobutanol/n-butanol) (Run 3, Extract, time 82 min): 1.02
concentration in sample (Run 3, Extract, time 82 min): 37480 µg/mL
Ratio of I/N (isobutanol/n-butanol) (Run 3, Feed, time 0 min): 1.24
concentration in sample (Run 3, Feed, time 0 min): 11650 µg/mL
Ratio of I/N (isobutanol/n-butanol) (Run 3, Raffinate, time 22 min): 1.34
concentration in sample (Run 3, Raffinate, time 22 min): 2720 µg/mL
Ratio of I/N (isobutanol/n-butanol) (Run 3, Raffinate, time 27 min): 1.22
concentration in sample (Run 3, Raffinate, time 27 min): 380 µg/mL
Ratio of I/N (isobutanol/n-butanol) (Run 3, Raffinate, time 31 min): 1.28
concentration in sample (Run 3, Raffinate, time 31 min): 380 µg/mL
Ratio of I/N (isobutanol/n-butanol) (Run 3, Raffinate, time 37 min): 1.29
concentration in sample (Run 3, Raffinate, time 37 min): 230 µg/mL
Ratio of I/N (isobutanol/n-butanol) (Run 3, Raffinate, time 43 min): 1.42
concentration in sample (Run 3, Raffinate, time 43 min): 230 µg/mL
Ratio of I/N (isobutanol/n-butanol) (Run 3, Raffinate, time 70 min): 1.37
concentration in sample (Run 3, Raffinate, time 70 min): 430 µg/mL
Ratio of I/N (isobutanol/n-butanol) (Run 3, Raffinate, time 74 min): 1.45
concentration in sample (Run 3, Raffinate, time 74 min): 480 µg/mL
Ratio of I/N (isobutanol/n-butanol) (Run 3, Raffinate, time 78 min): 1.41
concentration in sample (Run 3, Raffinate, time 78 min): 480 µg/mL
Ratio of I/N (isobutanol/n-butanol) (Run 3, Raffinate, time 82 min): 1.44
concentration in sample (Run 3, Raffinate, time 82 min): 480 µg/mL

CCCC(=O)O [butyrate]
extraction into DME: About half
concentration in sample [1]: 1570 µg/mL
concentration in sample [2]: 1240 µg/mL
concentration in sample [3]: 22090 µg/mL
concentration in sample [4]: 22520 µg/mL
concentration in sample (Run 3, Extract, time 22 min): 3520 µg/mL
concentration in sample (Run 3, Extract, time 27 min): 9290 µg/mL
concentration in sample (Run 3, Extract, time 43 min): 2210 µg/mL
concentration in sample (Run 3, Extract, time 70 min): 1710 µg/mL
concentration in sample (Run 3, Extract, time 74 min): 1380 µg/mL
concentration in sample (Run 3, Extract, time 78 min): 3010 µg/mL
concentration in sample (Run 3, Extract, time 82 min): 1880 µg/mL
concentration in sample (Run 3, Feed, time 0 min): 1710 µg/mL
concentration in sample (Run 3, Raffinate, time 22 min): 50780 µg/mL
concentration in sample (Run 3, Raffinate, time 27 min): 19520 µg/mL
concentration in sample (Run 3, Raffinate, time 31 min): 880 µg/mL
concentration in sample (Run 3, Raffinate, time 37 min): 880 µg/mL
concentration in sample (Run 3, Raffinate, time 43 min): 880 µg/mL
concentration in sample (Run 3, Raffinate, time 70 min): 950 µg/mL
concentration in sample (Run 3, Raffinate, time 74 min): 970 µg/mL
concentration in sample (Run 3, Raffinate, time 78 min): 870 µg/mL
concentration in sample (Run 3, Raffinate, time 82 min): 930 µg/mL

CC(=O)O [acetate]
extraction into DME: not extracted
concentration in sample [1]: 480 µg/mL
concentration in sample [2]: 0 µg/mL
concentration in sample [3]: 400 µg/mL
concentration in sample [4]: 370 µg/mL
concentration in sample (Run 3, Extract, time 22 min): 410 µg/mL
concentration in sample (Run 3, Extract, time 27 min): 0 µg/mL
concentration in sample (Run 3, Extract, time 43 min): 480 µg/mL
concentration in sample (Run 3, Extract, time 70 min): 400 µg/mL
concentration in sample (Run 3, Extract, time 74 min): 0 µg/mL
concentration in sample (Run 3, Extract, time 78 min): 550 µg/mL
concentration in sample (Run 3, Extract, time 82 min): 400 µg/mL
concentration in sample (Run 3, Feed, time 0 min): 5470 µg/mL
concentration in sample (Run 3, Raffinate, time 22 min): 6780 µg/mL
concentration in sample (Run 3, Raffinate, time 27 min): 5370 µg/mL
concentration in sample (Run 3, Raffinate, time 31 min): 6420 µg/mL
concentration in sample (Run 3, Raffinate, time 37 min): 6010 µg/mL
concentration in sample (Run 3, Raffinate, time 43 min): 7110 µg/mL
concentration in sample (Run 3, Raffinate, time 70 min): 6840 µg/mL
concentration in sample (Run 3, Raffinate, time 74 min): 7770 µg/mL
concentration in sample (Run 3, Raffinate, time 78 min): 7070 µg/mL
concentration in sample (Run 3, Raffinate, time 82 min): 7290 µg/mL
